Reference: ChEMBL document CHEMBL1130477, “Synthesis and structure-activity relationships of some novel oxetane carbapenems” (1997)
≈ marks a conversion by molar mass, not a printed value.

Columns and labels:
Enterococcus faecium = assay: In vitro antibacterial activity against Enterococcus faecium strain GC 1182, expressed as MIC(minimum inhibitory concentration); assay type: functional
Escherichia coli [1] = assay: In vitro antibacterial activity against Escherichia coli strain GC 2205, expressed as MIC(minimum inhibitory concentration); assay type: functional
Enterobacter cloacae = assay: In vitro antibacterial activity against Enterobacter cloacae strain GC 2209, expressed as MIC(minimum inhibitory concentration); assay type: functional
Morganella morganii = assay: In vitro antibacterial activity against Morganella morganii strain GC 2213, expressed as MIC(minimum inhibitory concentration); assay type: functional
Pseudomonas aeruginosa [2] = assay: In vitro antibacterial activity against Pseudomonas aeruginosa strain ATCC 27853, expressed as MIC(minimum inhibitory concentration); assay type: functional
[3] = system: Acinetobacter calcoaceticus; assay: In vitro antibacterial activity against Acinetobacter calcoaceticus aceticus strain GC 756, expressed as MIC(minimum inhibitory concentration); assay type: functional
[4] = target: T1, Dipeptidase 1 (Sus scrofa) (UniProt P22412); assay: (§1) Stability towards hog kidney dehydropeptidase (DHP) expressed as relative hydrolysis to imipenem
T1 sequence (whole entry): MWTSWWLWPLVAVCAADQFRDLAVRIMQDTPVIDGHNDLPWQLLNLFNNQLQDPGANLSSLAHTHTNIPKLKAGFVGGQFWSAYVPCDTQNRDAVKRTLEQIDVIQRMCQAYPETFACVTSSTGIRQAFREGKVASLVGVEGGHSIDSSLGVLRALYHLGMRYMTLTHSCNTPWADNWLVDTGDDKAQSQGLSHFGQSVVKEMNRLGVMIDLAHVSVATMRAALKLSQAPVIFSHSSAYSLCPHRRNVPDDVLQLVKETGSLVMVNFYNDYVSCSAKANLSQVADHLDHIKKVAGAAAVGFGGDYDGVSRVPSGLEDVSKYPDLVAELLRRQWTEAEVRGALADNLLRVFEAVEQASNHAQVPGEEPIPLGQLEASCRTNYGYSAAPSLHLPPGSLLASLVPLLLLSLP

Pseudomonas aeruginosa [5] = assay: In vitro antibacterial activity against Pseudomonas aeruginosa strain GC 1544, expressed as MIC(minimum inhibitory concentration); assay type: functional
[6] = system: Stenotrophomonas maltophilia; assay: In vitro antibacterial activity against Xanthomonas maltophilia strain GC 562, expressed as MIC(minimum inhibitory concentration); assay type: functional
Enterococcus faecalis = assay: In vitro antibacterial activity against Enterococcus faecalis strain GC 842, expressed as MIC(minimum inhibitory concentration); assay type: functional
Staphylococcus aureus [7] = assay: In vitro antibacterial activity against Staphylococcus aureus strain ATCC 29213, expressed as MIC(minimum inhibitory concentration); assay type: functional
Escherichia coli [8] = assay: In vitro antibacterial activity against Escherichia coli strain ATCC 25922, expressed as MIC(minimum inhibitory concentration); assay type: functional
Staphylococcus aureus [9] = assay: In vitro antibacterial activity against Staphylococcus aureus strain GC 2220, expressed as MIC(minimum inhibitory concentration); assay type: functional
Citrobacter freundii = assay: In vitro antibacterial activity against Citrobacter freundii strain GC 2211, expressed as MIC(minimum inhibitory concentration); assay type: functional
Escherichia coli [10] = assay: In vitro antibacterial activity against Escherichia coli strain GC 1792, expressed as MIC(minimum inhibitory concentration); assay type: functional
[11] = target: T1, Dipeptidase 1 (Sus scrofa); assay: as §1; assay type: functional, tissue-based

| Structure (SMILES) | MIC (Enterococcus faecium) [µg/mL] | MIC (Escherichia coli [1]) [µg/mL] | MIC (Enterobacter cloacae) [µg/mL] | MIC (Morganella morganii) [µg/mL] | MIC (Pseudomonas aeruginosa [2]) [µg/mL] | MIC [3] [µg/mL] | Relative hydrolysis [4] | MIC (Pseudomonas aeruginosa [5]) [µg/mL] | MIC [6] [µg/mL] | MIC (Enterococcus faecalis) [µg/mL] | MIC (Staphylococcus aureus [7]) [µg/mL] | MIC (Escherichia coli [8]) [µg/mL] | MIC (Staphylococcus aureus [9]) [µg/mL] | MIC (Citrobacter freundii) [µg/mL] | MIC (Escherichia coli [10]) [µg/mL] | Relative hydrolysis [11] |
| --- | --- | --- | --- | --- | --- | --- | --- | --- | --- | --- | --- | --- | --- | --- | --- | --- |
| C[C@@H](O)[C@H]1C(=O)N2C(C(=O)O)=C(SCCNC=N)C[C@H]12 [IMIPENEM ANHYDROUS] | 128 (≈ 428 µM) | 0.12 (≈ 0.401 µM) | ≤ 0.06 | 2 (≈ 6.68 µM) | 2 (≈ 6.68 µM) | 0.5 (≈ 1.67 µM) | 100 | 16 (≈ 53.4 µM) | > 128 | 1 (≈ 3.34 µM) | ≤ 0.06 | 0.12 (≈ 0.401 µM) | 1 (≈ 3.34 µM) | 0.5 (≈ 1.67 µM) | 0.12 (≈ 0.401 µM) | – |
| C[C@H]1C(S[C@@H]2[C@@H](C)O[C@@H]2CN)=C(C(=O)[O-])N2C(=O)[C@H]([C@@H](C)O)C12.[Na+] (some centres not stated) | > 128 | 0.25 | 0.5 | 4 | 64 | 16 | – | 128 | > 128 | 4 | 0.12 | 0.12 | 8 | 1 | 0.12 | – |
| COC(=O)[C@H]1O[C@H](COS(=O)(=O)c2ccc(C)cc2)[C@H]1SC1=C(C(=O)[O-])N2C(=O)[C@H]([C@@H](C)O)[C@H]2[C@H]1C.[Na+] | > 128 | 2 | > 128 | > 128 | > 128 | > 128 | < 1 | > 128 | > 128 | 64 | 4 | > 128 | 64 | > 128 | > 128 | – |
| COC(=O)[C@H]1O[C@H](CN)[C@H]1SC1=C(C(=O)O)N2C(=O)[C@H]([C@@H](C)O)[C@H]2[C@H]1C | > 128 | 0.5 (≈ 1.29 µM) | 0.25 (≈ 0.647 µM) | 16 (≈ 41.4 µM) | 128 (≈ 331 µM) | 16 (≈ 41.4 µM) | < 1 | > 128 | > 128 | 32 (≈ 82.8 µM) | 1 (≈ 2.59 µM) | 0.25 (≈ 0.647 µM) | 32 (≈ 82.8 µM) | 1 (≈ 2.59 µM) | 0.5 (≈ 1.29 µM) | – |
| C[C@H]1C(S[C@H]2[C@@H](CN)O[C@@H]2CO)=C(C(=O)O)N2C(=O)[C@H]([C@@H](C)O)C12 (some centres not stated) | > 128 | 0.25 (≈ 0.698 µM) | 0.25 (≈ 0.698 µM) | 2 (≈ 5.58 µM) | 16 (≈ 44.6 µM) | 4 (≈ 11.2 µM) | – | 32 (≈ 89.3 µM) | > 128 | 4 (≈ 11.2 µM) | 0.12 (≈ 0.335 µM) | 0.12 (≈ 0.335 µM) | 8 (≈ 22.3 µM) | 1 (≈ 2.79 µM) | 0.25 (≈ 0.698 µM) | – |

Continued, values first:

| MIC (Enterococcus faecium) [µg/mL] | MIC (Escherichia coli [1]) [µg/mL] | MIC (Enterobacter cloacae) [µg/mL] | MIC (Morganella morganii) [µg/mL] | MIC (Pseudomonas aeruginosa [2]) [µg/mL] | MIC [3] [µg/mL] | Relative hydrolysis [4] | MIC (Pseudomonas aeruginosa [5]) [µg/mL] | MIC [6] [µg/mL] | MIC (Enterococcus faecalis) [µg/mL] | MIC (Staphylococcus aureus [7]) [µg/mL] | MIC (Escherichia coli [8]) [µg/mL] | MIC (Staphylococcus aureus [9]) [µg/mL] | MIC (Citrobacter freundii) [µg/mL] | MIC (Escherichia coli [10]) [µg/mL] | Relative hydrolysis [11] | Structure (SMILES) |
| --- | --- | --- | --- | --- | --- | --- | --- | --- | --- | --- | --- | --- | --- | --- | --- | --- |
| 64 (≈ 187 µM) | ≤ 0.06 | < 0.06 | 0.5 (≈ 1.46 µM) | 4 (≈ 11.7 µM) | 2 (≈ 5.84 µM) | – | 16 (≈ 46.7 µM) | > 128 | 1 (≈ 2.92 µM) | ≤ 0.06 | ≤ 0.06 | 2 (≈ 5.84 µM) | 0.12 (≈ 0.35 µM) | ≤ 0.06 | 8.5 | CC1C(S[C@@H]2CCO[C@@H]2CN)=C(C(=O)O)N2C(=O)[C@H]([C@@H](C)O)[C@@H]12 (single isomer, unassigned) |
| > 64 | 0.5 | 2 | 4 | > 64 | 32 | – | > 64 | > 64 | 32 | 4 | 0.5 | > 64 | 8 | 1 | – | C[C@@H](O)[C@H]1C(=O)N2C(C(=O)[O-])=C(S[C@H]3[C@@H](C(=O)N(C)C)O[C@@H]3CO)[C@H](C)[C@H]12.[Na+] |
| > 128 | 0.25 | 4 | 4 | > 128 | 32 | < 1 | > 128 | > 128 | 16 | 2 | 0.5 | 32 | 16 | 1 | – | COC(=O)[C@H]1O[C@H](CO)[C@H]1SC1=C(C(=O)[O-])N2C(=O)[C@H]([C@@H](C)O)[C@H]2[C@H]1C.[Na+] |
